# Laboratory results as given in patent publication US20110105855A1, “EARLY DETECTION OF COGNITION IMPAIRMENT IN ELDERLY POPULATION” (TRUSTEES OF TUFTS COLLEGE, priority 2009, published 2011).
# Legend:
# [1] = parameters: species or system rhesus monkeys (Macaca mulatta); conditions: rhesus monkey, in vivo, 2.2 mg/kg/day
# Text: Study 1. Lutein and Zeaxanthin Supplementation Study. Eighteen rhesus monkeys (Macaca mulatta) were reared on one of two semipurified diets, both of which contained adequate levels of all known nutrients, but no detectable xanthophylls as analyzed by our laboratory. The animals also received limited amounts of very low xanthophyll foods such as wheat or rice cereals, white rice, sweetened drinks and gelatin, pineapple and banana.
# Beginning at 7-16 years of age, 6 of these monkeys were supplemented with pure lutein and 6 with pure zeaxanthin, at 3.9 μmol/kg/day (2.2 mg/kg/day). The lutein and zeaxanthin supplements were purified or synthesized by DSM Nutritional Products, Ltd. The supplements were inserted into marshmallows, sweetened gelatin or small pieces of fruit. Beadlets and individual supplement doses were stored at 4° C. in the dark. […]
# Biopsy punches were used to dissect the central retina, containing the macula, into a 4 mm diameter circle centered on the fovea. Retinal tissue was analyzed for carotenoids as described previously (1). Cerebellum and occipital cortex samples were collected and analyzed for carotenoids as described by Park et al. (2). […]
# Relationships between retina and brain tissue were evaluated using Pearson's correlation coefficients. For those relationships with sample size >6, p values were calculated.
# [2] = elderly population of healthy 65 year olds; cited from earlier work
# cognitive function = conditions: healthy older adults, intervention trial (Johnson et al. 2008); cited from earlier work
SMILES,Carotenoids found in brain tissue [1],Average plasma level [2] [µM],Effect of supplementation on cognitive function (cognitive function)
CC1=C[C@H](O)CC(C)(C)[C@H]1/C=C/C(C)=C/C=C/C(C)=C/C=C/C=C(C)/C=C/C=C(C)/C=C/C1=C(C)C[C@@H](O)CC1(C)C [Lutein],the only carotenoid measured in brain tissue,0.27 ± 0.15,improve cognitive function
CC1=C(/C=C/C(C)=C/C=C/C(C)=C/C=C/C=C(C)/C=C/C=C(C)/C=C/C2=C(C)C[C@@H](O)CC2(C)C)C(C)(C)C[C@H](O)C1 [Zeaxanthin],the only carotenoid measured in brain tissue,0.032 ± 0.021,
